pIC50: −log10 of the molar value. Peptide text beside a SMILES is read from it. * marks the point of attachment. NHPhenethyl = c1ccc(CCN*)cc1; Boc = CC(C)(C)OC(=O)*
Experiments:
[1] = molecular target: T1, Cholecystokinin receptor type A (Mus musculus, UniProt O08786); experiment: Concentration of compound required to inhibit binding of [125I]J-BH-CCK-8 radioligand to CCKA in mouse pancreatic membranes; type: cell membranes
T1 sequence (O08786 whole entry): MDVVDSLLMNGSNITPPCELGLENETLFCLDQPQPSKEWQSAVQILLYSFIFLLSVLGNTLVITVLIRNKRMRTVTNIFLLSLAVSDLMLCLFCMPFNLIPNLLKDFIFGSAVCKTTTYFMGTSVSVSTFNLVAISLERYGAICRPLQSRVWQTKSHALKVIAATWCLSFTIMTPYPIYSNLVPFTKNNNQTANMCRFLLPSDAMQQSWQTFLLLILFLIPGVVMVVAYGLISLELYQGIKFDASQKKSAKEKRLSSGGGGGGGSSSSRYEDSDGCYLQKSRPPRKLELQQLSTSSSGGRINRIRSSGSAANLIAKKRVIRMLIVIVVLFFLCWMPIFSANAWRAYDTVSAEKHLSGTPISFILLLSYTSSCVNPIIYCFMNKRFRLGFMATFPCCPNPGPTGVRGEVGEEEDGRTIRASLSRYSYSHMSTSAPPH

[2] = molecular target: T2, Gastrin/cholecystokinin type B receptor (Mus musculus, UniProt P56481); experiment: Concentration of compound required to inhibit binding of [125I]J-BH-CCK-8 radioligand to CCKB in mouse fore brain membranes; type: cell membranes, Membrane
T2 sequence (P56481 whole entry): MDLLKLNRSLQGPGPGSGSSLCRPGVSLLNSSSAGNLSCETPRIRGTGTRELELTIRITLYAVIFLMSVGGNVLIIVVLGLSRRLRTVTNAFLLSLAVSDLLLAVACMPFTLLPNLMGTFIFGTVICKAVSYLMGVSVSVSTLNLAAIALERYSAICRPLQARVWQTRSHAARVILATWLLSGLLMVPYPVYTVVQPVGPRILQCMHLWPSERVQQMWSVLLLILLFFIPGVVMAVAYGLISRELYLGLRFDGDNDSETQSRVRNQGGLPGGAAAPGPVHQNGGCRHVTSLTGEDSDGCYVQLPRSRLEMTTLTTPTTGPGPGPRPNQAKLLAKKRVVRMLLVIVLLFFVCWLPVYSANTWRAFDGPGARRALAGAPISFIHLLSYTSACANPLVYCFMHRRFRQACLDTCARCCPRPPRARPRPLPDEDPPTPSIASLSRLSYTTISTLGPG

| SMILES | pIC50 [1] | pIC50 [2] |
| --- | --- | --- |
| CN1C[C@H](C(=O)N[C@]2(C)O[C@@]3(O)[C@@H]4CCCN4C(=O)[C@H](Cc4ccccc4)N3C2=O)C[C@@H]2c3cccc4[nH]cc(c34)C[C@H]21 [DIHYDROERGOTAMINE] | < 4.10 | 4.64 |
| C[C@H](NC(=O)C1C=C2c3cccc4[nH]cc(c34)CC2N(C)C1)C(=O)NCCc1ccccc1 (stereo not given in full) | 4.92 | < 4.10 |
| CC(C)C[C@H](NC(=O)[C@H](Cc1c[nH]c2ccccc12)NC(=O)OC(C)(C)C)C(=O)N[C@@H](CC(=O)O)C(=O)NCCc1ccccc1 (Boc-Trp-Leu-Asp-NHPhenethyl) | 5.46 | 6.46 |
| CN1C[C@H](C(=O)N[C@]2(C)O[C@@]3(O)[C@@H]4CCCN4C(=O)[C@H](Cc4ccccc4)N3C2=O)C=C2c3cccc4[nH]cc(c34)C[C@H]21 [ERGOTAMINE] | 4.47 | 4.77 |
| CC(C)C[C@H]1C(=O)N2CCC[C@H]2[C@]2(O)O[C@](NC(=O)[C@@H]3C=C4c5cccc6[nH]cc(c56)C[C@H]4N(C)C3)(C(C)C)C(=O)N12 [ERGOCRYPTINE] | < 4.10 | < 4.10 |
